Measurements published in patent US8741836B2, “Polypeptides” (Novo Nordisk A/S, priority 2011, dated 2014).
Starred links: 1 amine or outer side, 2 acyl side, 3 side chain; linkers in the order of their positions; H or OH if unused. Positions of bridges follow the written chain, without caps; N, C: chain ends. Residues, ends and D or L forms follow the SMILES beside them. *: point of attachment. C20 diacid = O=C(O)CCCCCCCCCCCCCCCCCCC(=O)*; γGlu = O=C(O)[C@H](CCC(=O)[*:2])N[*:1]

Tests used:
[1] = Assay (III) ThT fibrillation assay for physical stability; type: physicochemical; conditions: for ThT pH 4.0 lag time: pH 4.0, ThT fibrillation assay
In short: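 Freshly prepared, pH-adjusted formulations with 1 μM ThT incubated at 37 °C under 960 rpm orbital shaking (1 mm), fluorescence (ex 444, em 485 nm) read every 20 min. […] Peptide content before and after measured by reverse-phase HPLC against pramlintide standard.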

ad libitum fed rat = assay: Assay (I) efficacy testing on appetite (food intake) using an ad libitum fed rat model; type: in vivo, Sprague Dawley (SD) rats
In short: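 Ad libitum fed Sprague Dawley rats, 200-250 g, singly housed on reversed light cycle, got one ip, po or sc dose of 0.01-3 mg/kg just before lights off; groups of 5-8 with vehicle control. Food intake recorded hourly for 7 h, then at 24 h and sometimes 48 h; Grubbs outliers excluded.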

| Compound | ThT pH 4.0 lag time (physical stability in fibrillogenesis assay) ([1]; pH 4.0) | ThT pH 4.0 lag time [1] | Food intake reduction 0-24 h 3 nmol/kg (%) (ad libitum fed rat; 0-24 h) | Food intake reduction 24-48 h 3 nmol/kg (%) (ad libitum fed rat; 24-48 h) | Food intake reduction 0-24 h 30 nmol/kg (%) (ad libitum fed rat; 30 nmol/kg, 0-24 h) | Food intake reduction 24-48 h 30 nmol/kg (%) (ad libitum fed rat; 30 nmol/kg, 24-48 h) |
| --- | --- | --- | --- | --- | --- | --- |
| CC[C@H](C)[C@H](NC(=O)[C@@H]1CCCN1C(=O)CNC(=O)[C@H](Cc1ccccc1)NC(=O)[C@H](CC(N)=O)NC(=O)[C@H](CC(N)=O)NC(=O)[C@H](CO)NC(=O)[C@H](CO)NC(=O)[C@H](Cc1c[nH]cn1)NC(=O)[C@H](CCCNC(=N)N)NC(=O)[C@H](CC(C)C)NC(=O)[C@H](Cc1ccccc1)NC(=O)[C@H](CCC(=O)O)NC(=O)[C@H](C)NC(=O)[C@H](CC(C)C)NC(=O)[C@H](CCCNC(=N)N)NC(=O)[C@H](CCC(N)=O)NC(=O)[C@@H](NC(=O)[C@H](C)NC(=O)[C@@H]1CSSC[C@H](NC(=O)[C@H](CCCCN)NC(=O)CC[C@H](NC(=O)CCCCCCCCCCCCCCCCCCC(=O)O)C(=O)O)C(=O)N[C@@H](CC(N)=O)C(=O)N[C@@H]([C@@H](C)O)C(=O)N[C@@H](C)C(=O)N[C@@H]([C@@H](C)O)C(=O)N1)[C@@H](C)O)C(=O)N[C@@H](CC(C)C)C(=O)N1CCC[C@H]1C(=O)N1CCC[C@H]1C(=O)N[C@H](C(=O)N[C@@H](CC(N)=O)C(=O)N[C@H](C(=O)NCC(=O)N[C@@H](CO)C(=O)N[C@@H](CC(N)=O)C(=O)N[C@H](C(=O)N1CCC[C@H]1C(N)=O)[C@@H](C)O)C(C)C)[C@@H](C)O [Example 53, N-alpha-[(S)-4-Carboxy-4-(19-carboxynonadecanoylamino)butyryl]-[Glu14,Arg17,Pro37]-pramlintide] | >45 h | >45 h | 40% | 28% | – | – |
| CC[C@H](C)[C@H](NC(=O)[C@@H]1CCCN1C(=O)CNC(=O)[C@H](Cc1ccccc1)NC(=O)[C@H](CC(N)=O)NC(=O)[C@H](CC(N)=O)NC(=O)[C@H](CO)NC(=O)[C@H](CO)NC(=O)[C@H](Cc1c[nH]cn1)NC(=O)[C@H](CCCNC(=N)N)NC(=O)[C@H](CC(C)C)NC(=O)[C@H](Cc1ccccc1)NC(=O)[C@H](CCC(=O)O)NC(=O)[C@H](C)NC(=O)[C@H](CC(C)C)NC(=O)[C@H](CCCNC(=N)N)NC(=O)[C@H](CCC(N)=O)NC(=O)[C@@H](NC(=O)[C@H](C)NC(=O)[C@@H]1CSSC[C@H](NC(=O)[C@H](CCCCN)NC(=O)CC[C@H](NC(=O)CCCCCCCCCCCCCCCCCCC(=O)O)C(=O)O)C(=O)N[C@@H](CC(N)=O)C(=O)N[C@@H]([C@@H](C)O)C(=O)N[C@@H](C)C(=O)N[C@@H]([C@@H](C)O)C(=O)N1)[C@@H](C)O)C(=O)N[C@@H](CC(C)C)C(=O)N1CCC[C@H]1C(=O)N1CCC[C@H]1C(=O)N[C@H](C(=O)N[C@@H](CC(N)=O)C(=O)N[C@H](C(=O)NCC(=O)N[C@@H](CO)C(=O)N[C@@H](Cc1c[nH]cn1)C(=O)N[C@H](C(=O)N[C@@H](Cc1ccc(O)cc1)C(N)=O)[C@@H](C)O)C(C)C)[C@@H](C)O [Example 57, N-alpha-[(S)-4-Carboxy-4-(19-carboxynonadecanoylamino)butyryl]-[Glu14,Arg17,His35]-pramlintide] ({C20 diacid-γGlu}-KCNTATCATQRLAEFLRHSSNNFGPILPPTNVGSHTY-NH2; disulfide 2-7 (inferred)) | – | >45 h | 17% | 0% | – | – |
| CC[C@H](C)[C@H](NC(=O)[C@@H]1CCCN1C(=O)CNC(=O)[C@H](Cc1ccccc1)NC(=O)[C@H](CC(N)=O)NC(=O)[C@H](CC(N)=O)NC(=O)[C@H](CO)NC(=O)[C@H](CO)NC(=O)[C@H](Cc1c[nH]cn1)NC(=O)[C@H](Cc1c[nH]cn1)NC(=O)[C@H](CC(C)C)NC(=O)[C@H](Cc1ccccc1)NC(=O)[C@H](CCC(=O)O)NC(=O)[C@H](C)NC(=O)[C@H](CC(C)C)NC(=O)[C@H](CCCNC(=N)N)NC(=O)[C@H](CCC(N)=O)NC(=O)[C@@H](NC(=O)[C@H](C)NC(=O)[C@@H]1CSSC[C@H](NC(=O)[C@H](CCCCN)NC(=O)CC[C@H](NC(=O)CCCCCCCCCCCCCCCCCCC(=O)O)C(=O)O)C(=O)N[C@@H](CC(N)=O)C(=O)N[C@@H]([C@@H](C)O)C(=O)N[C@@H](C)C(=O)N[C@@H]([C@@H](C)O)C(=O)N1)[C@@H](C)O)C(=O)N[C@@H](CC(C)C)C(=O)N1CCC[C@H]1C(=O)N1CCC[C@H]1C(=O)N[C@H](C(=O)N[C@@H](CC(N)=O)C(=O)N[C@H](C(=O)NCC(=O)N[C@@H](CO)C(=O)N[C@@H](CC(N)=O)C(=O)N[C@H](C(=O)N1CCC[C@H]1C(N)=O)[C@@H](C)O)C(C)C)[C@@H](C)O [Example 52, N-alpha-[(S)-4-Carboxy-4-(19-carboxynonadecanoylamino)butyryl]-[Glu14,His17,Pro37]-pramlintide] ({C20 diacid-γGlu}-KCNTATCATQRLAEFLHHSSNNFGPILPPTNVGSNTP-NH2; disulfide 2-7) | – | >45 h | 62% | 74% | – | – |
| CC[C@H](C)[C@H](NC(=O)[C@@H]1CCCN1C(=O)CNC(=O)[C@H](Cc1ccccc1)NC(=O)[C@H](CC(N)=O)NC(=O)[C@H](CC(N)=O)NC(=O)[C@H](CO)NC(=O)[C@H](CO)NC(=O)[C@H](Cc1c[nH]cn1)NC(=O)[C@H](CCCNC(=N)N)NC(=O)[C@H](CC(C)C)NC(=O)[C@H](Cc1ccccc1)NC(=O)[C@H](CCC(=O)O)NC(=O)[C@H](C)NC(=O)[C@H](CC(C)C)NC(=O)[C@H](CCCNC(=N)N)NC(=O)[C@H](CCC(N)=O)NC(=O)[C@@H](NC(=O)[C@H](C)NC(=O)[C@@H]1CSSC[C@H](NC(=O)[C@H](CCCCN)NC(=O)CC[C@H](NC(=O)CCCCCCCCCCCCCCCCCCC(=O)O)C(=O)O)C(=O)N[C@@H](CC(N)=O)C(=O)N[C@@H]([C@@H](C)O)C(=O)N[C@@H](C)C(=O)N[C@@H]([C@@H](C)O)C(=O)N1)[C@@H](C)O)C(=O)N[C@@H](CC(C)C)C(=O)N1CCC[C@H]1C(=O)N1CCC[C@H]1C(=O)N[C@H](C(=O)N[C@@H](CC(N)=O)C(=O)N[C@H](C(=O)NCC(=O)N[C@@H](CO)C(=O)N[C@@H](CC(N)=O)C(=O)N[C@H](C(=O)N[C@@H](Cc1ccc(O)cc1)C(N)=O)[C@@H](C)O)C(C)C)[C@@H](C)O [Example 50, N-alpha-[(S)-4-Carboxy-4-(19-carboxynonadecanoylamino)butyryl]-[Glu14,Arg17]-pramlintide] ({C20 diacid-γGlu}-KCNTATCATQRLAEFLRHSSNNFGPILPPTNVGSNTY-NH2; disulfide 2-7 (inferred); C-terminus assumed) | – | >45 h | 30% | 8% | – | – |
| CC[C@H](C)[C@H](NC(=O)[C@@H]1CCCN1C(=O)CNC(=O)[C@H](Cc1ccccc1)NC(=O)[C@H](CC(N)=O)NC(=O)[C@H](CC(N)=O)NC(=O)[C@H](CO)NC(=O)[C@H](CO)NC(=O)[C@H](Cc1c[nH]cn1)NC(=O)[C@H](Cc1c[nH]cn1)NC(=O)[C@H](CC(C)C)NC(=O)[C@H](Cc1ccccc1)NC(=O)[C@H](CCC(=O)O)NC(=O)[C@H](C)NC(=O)[C@H](CC(C)C)NC(=O)[C@H](CCCNC(=N)N)NC(=O)[C@H](CCC(N)=O)NC(=O)[C@@H](NC(=O)[C@H](C)NC(=O)[C@@H]1CSSC[C@H](NC(=O)[C@H](CCCCN)NC(=O)CC[C@H](NC(=O)CCCCCCCCCCCCCCCCCCC(=O)O)C(=O)O)C(=O)N[C@@H](CC(N)=O)C(=O)N[C@@H]([C@@H](C)O)C(=O)N[C@@H](C)C(=O)N[C@@H]([C@@H](C)O)C(=O)N1)[C@@H](C)O)C(=O)N[C@@H](CC(C)C)C(=O)N1CCC[C@H]1C(=O)N1CCC[C@H]1C(=O)N[C@H](C(=O)N[C@@H](CC(N)=O)C(=O)N[C@H](C(=O)NCC(=O)N[C@@H](CO)C(=O)N[C@@H](Cc1c[nH]cn1)C(=O)N[C@H](C(=O)N[C@@H](Cc1ccc(O)cc1)C(N)=O)[C@@H](C)O)C(C)C)[C@@H](C)O [Example 55, N-alpha-[(S)-4-Carboxy-4-(19-carboxynonadecanoylamino)butyryl]-[Glu14,His17,His35]-pramlintide] ({C20 diacid-γGlu}-KCNTATCATQRLAEFLHHSSNNFGPILPPTNVGSHTY-NH2; disulfide 2-7 (inferred)) | – | 37 h | 58% | 40% | 88% | 90% |
| CC[C@H](C)[C@H](NC(=O)[C@@H]1CCCN1C(=O)CNC(=O)[C@H](Cc1ccccc1)NC(=O)[C@H](CC(N)=O)NC(=O)[C@H](CC(N)=O)NC(=O)[C@H](CO)NC(=O)[C@H](CO)NC(=O)[C@H](Cc1c[nH]cn1)NC(=O)[C@H](Cc1c[nH]cn1)NC(=O)[C@H](CC(C)C)NC(=O)[C@H](Cc1ccccc1)NC(=O)[C@H](CCC(=O)O)NC(=O)[C@H](C)NC(=O)[C@H](CC(C)C)NC(=O)[C@H](CCCNC(=N)N)NC(=O)[C@H](CCC(N)=O)NC(=O)[C@@H](NC(=O)[C@H](C)NC(=O)[C@@H]1CSSC[C@H](NC(=O)[C@H](CCCCN)NC(=O)CC[C@H](NC(=O)CCCCCCCCCCCCCCCCCCC(=O)O)C(=O)O)C(=O)N[C@@H](CC(N)=O)C(=O)N[C@@H]([C@@H](C)O)C(=O)N[C@@H](C)C(=O)N[C@@H]([C@@H](C)O)C(=O)N1)[C@@H](C)O)C(=O)N[C@@H](CC(C)C)C(=O)N1CCC[C@H]1C(=O)N1CCC[C@H]1C(=O)N[C@H](C(=O)N[C@@H](CC(N)=O)C(=O)N[C@H](C(=O)NCC(=O)N[C@@H](CO)C(=O)N[C@@H](CC(N)=O)C(=O)N[C@H](C(=O)N[C@@H](Cc1ccc(O)cc1)C(N)=O)[C@@H](C)O)C(C)C)[C@@H](C)O [Example 27, N-alpha-[(S)-4-Carboxy-4-(19-carboxynonadecanoylamino)butyryl]-[Glu14,His17]-pramlintide] ({C20 diacid-γGlu}-KCNTATCATQRLAEFLHHSSNNFGPILPPTNVGSNTY-NH2; disulfide 2-7 (inferred)) | – | – | 56% | 53% | – | – |
